# Assay results as given in US12630803B2, “Method of increasing proliferation of pancreatic beta cells, treatment method, and composition” (ICAHN SCHOOL OF MEDICINE AT MOUNT SINAI, priority 2018, dated 2026).
# “Also recorded” adds a separate entry of the source. Ends that are not written are not given here.
# Assays:
# human beta cells [1] = assay: Ki67-insulin immunolabeling of dispersed human islet cells (beta cell proliferation); details: for actual Ki67% values: DYRK1A inhibitor alone, dispersed human islets, 96 hours, FIG. 1F; for synergy of DYRK1A inhibitor with GLP1 on beta cell proliferation: in combination with GLP1, FIGS. 1F, 4; for ability to replace or mimic GLP1 in harmine-GLP1 proliferation: agent administered together with harmine, FIGS. 5A-5C, 5E, 5F; for proliferation, agent alone at low dose: harmine 1 μM alone or GLP1 alone, FIG. 3E; for synergy of GLP1R agonist with harmine on beta cell proliferation: in combination with harmine, FIG. 1G
# Source text: (§3) Human Islets: Human islets from 81 normal donors were obtained through the NIH-supported Integrated Islet Distribution Program (IIDP), the Alberta Diabetes Institute Islet Core at the University of Alberta, and the Clinical Islet Laboratory, University of Alberta Hospital. Islets were harvested from pancreata from deceased organ donors without any identifying information with informed consent and IRB approval at the islet-isolating centers. […] In addition, islets were obtained from 11 donors with Type 2 diabetes. […] Three were known to be on diabetes medications (metformin n=3, DPP4 inhibitor n=1). […] Whole islets were pelleted by centrifugation at 200×G and washed twice in PBS. Islets were then incubated in Accutase for 15-17 minutes at 37° C. and completely dispersed to single cells by pipette trituration. Single islet cells were pelleted by centrifugation at 700×G and re-suspended in islet culture medium.
# (§4) Compound Treatments: Dispersed islets were plated on poly-D-lysine-laminin-coated glass chamber slides or coverslips. Cells derived from 20-30 IEQ dispersed cells were seeded per well, and allowed to recover for 24 hr prior to compound treatment. Cells were treated for 96 hours prior to Ki67 staining, BrdU staining or TUNEL labeling.
# Antibodies were diluted in blocking buffer (5% normal goat serum (NGS), 1% bovine serum albumin (BSA), 0.5% Triton, in PBS). […] BrdU (Cell Proliferation Labelling Reagent. Amersham GE Healthcare. GE: RPN201) was added to each treatment at a 1:100 dilution, 18 hours prior to fixation. Antigen retrieval for BrdU immunostaining was performed following fixation using 1N HCl at 37° C. for 30 minutes before primary antibody incubation.
# beta (INS+) cells = assay: BrdU labeling in beta (INS+) cells of dispersed human islets; assay type: cell-based
# Source text: (§1) Primary and secondary antisera used are listed below.
# alpha (GCG+) cells = assay: BrdU labeling in alpha (GCG+) cells of dispersed human islets; assay type: cell-based
# Source text: as §1
# delta (SST+) cells = assay: BrdU labeling in delta (SST+) cells of dispersed human islets; assay type: cell-based
# Source text: as §1
# ductal (CK19+) cells = assay: BrdU labeling in ductal (CK19+) cells of dispersed human islets; assay type: cell-based
# Source text: as §1
# human beta cells [2] = assay: TUNEL assay of beta cell death; assay type: cell-based; details: 96 hours, FIGS. 10C-10D
# Source text: as §1
# [3] = tested on: markers of beta cell differentiation; assay: qPCR of differentiation markers in islets from donors with T2D; assay type: cell-based, human; details: FIG. 9A
# Source text: Purity ranged from 55% to 85%.
# (§2) Primers are shown below in Tables 5 and 6.
# PDX1, MAFA, and NKX6.1 = details: normal donors, FIG. 8B
# Method: Antibodies were diluted in blocking buffer (5% normal goat serum (NGS), 1% bovine serum albumin (BSA), 0.5% Triton, in PBS). Primary and secondary antisera used are listed below. BrdU (Cell Proliferation Labelling Reagent. Amersham GE Healthcare. GE: RPN201) was added to each treatment at a 1:100 dilution, 18 hours prior to fixation. Antigen retrieval for BrdU immunostaining was performed following fixation using 1N HCl at 37° C. for 30 minutes before primary antibody incubation. Cells were incubated with primary and secondary antibodies according to Table 4 below before counterstained with DAPI.
# T2D beta cells = details: FIGS. 9D-9E
# Source text: as §3, §4
# Antibodies were diluted in blocking buffer (5% normal goat serum (NGS), 1% bovine serum albumin (BSA), 0.5% Triton, in PBS). […]
# cell cycle molecules = assay: qPCR of cell cycle activators and inhibitors in human islets; assay type: cell-based; details: GLP1 added to harmine, vs harmine alone, 72 hours
# Source text: as §2
# [4] = GLP1 added to harmine, vs harmine alone
compound,measurement,setting,value
"Nc1ncnc2c1c(I)cn2[C@@H]1O[C@H](CO)[C@@H](O)[C@H]1O [5-IT, 5-iodotubercidin]",actual Ki67% values,human beta cells [1],2.6%
same,synergy of DYRK1A inhibitor with GLP1 on beta cell proliferation,human beta cells [1],synergistic
CC(C)Oc1ccc(F)c(-c2cnc(N)c(C(=O)Nc3cnccc3N3CCC[C@@H](C(=O)O)C3)n2)c1 [GNF4877],actual Ki67% values,human beta cells [1],2.9%
same,synergy of DYRK1A inhibitor with GLP1 on beta cell proliferation,human beta cells [1],synergistic
O=S(=O)(NCCNC/C=C/c1ccc(Br)cc1)c1cccc2cnccc12 [H89],"effect on human beta cell proliferation, agent administered alone",human beta cells [1],no effect on its own
"CC(C)Cn1c(=O)n(C)c(=O)c2[nH]cnc21 [IBMX, 3-Isobutyl-1-methylxanthine]",ability to replace or mimic GLP1 in harmine-GLP1 proliferation,human beta cells [1],mimicked; also recorded: can replace GLP1
same,"effect on human beta cell proliferation, agent administered alone",human beta cells [1],no effect on proliferation
CCN1/C(=C/C(C)=O)Sc2ccc(O)cc21 [INDY],actual Ki67% values,human beta cells [1],1.7%
same,synergy of DYRK1A inhibitor with GLP1 on beta cell proliferation,human beta cells [1],synergistic
"CCCC(=O)Nc1ncnc2c1ncn2[C@@H]1O[C@@H]2COP(=O)(O)O[C@H]2[C@H]1OC(=O)CCC [di-butyryl cAMP, dibutyryl cAMP]",ability to replace or mimic GLP1 in harmine-GLP1 proliferation,human beta cells [1],can replace GLP1
same,ability to replace or mimic GLP1 in harmine-GLP1 proliferation,human beta cells [1]; listed as dibutyryl-cyclicAMP,mimicked
same,"effect on human beta cell proliferation, agent administered alone",human beta cells [1],no effect on proliferation
OCCN(CCO)c1nc(N2CCCCC2)c2nc(N(CCO)CCO)nc(N3CCCCC3)c2n1 [dipyridamole],ability to replace or mimic GLP1 in harmine-GLP1 proliferation,human beta cells [1],mimicked; also recorded: can replace GLP1
same,"effect on human beta cell proliferation, agent administered alone",human beta cells [1],no effect on proliferation
COc1ccc2c(c1)[nH]c1c(C)nccc12 [harmine],proliferation (BrdU) in beta cells,beta (INS+) cells; harmine alone,activates proliferation
same,proliferation (BrdU) in alpha cells,alpha (GCG+) cells; harmine alone,activates proliferation
same,proliferation (BrdU) in delta cells,delta (SST+) cells; harmine alone,activates proliferation
same,proliferation (BrdU) in ductal cells,ductal (CK19+) cells; harmine alone,activates proliferation
same,markers of beta cell death (TUNEL),human beta cells [2],Neither harmine nor the harmine-GLP1 combination treatment induced markers of beta cell death
same,expression of differentiation markers (qPCR),[3],did not have adverse effects on differentiation
same,expression of differentiation markers (qPCR),[3]; listed as Harmine,"increased the expression of PDX1, MAFB, NKX6.1, GLUT2, GLP1R, and PCSK1"
same,"PDX1, MAFA and NKX6.1 proteins in beta cells","PDX1, MAFA, and NKX6.1",increases in beta cell nuclei
same,beta cell proliferation (Ki67 immunolabeling),T2D beta cells,activated beta cell proliferation in T2D beta cells
same,actual Ki67% values,human beta cells [1],2.1%
same,"proliferation, agent alone at low dose",human beta cells [1],little or no proliferation
same,human beta cell proliferation (Ki67 in insulin-positive cells),human beta cells [1]; harmine alone,~2%
same,actual Ki67% value,"human beta cells [1]; harmine alone, experiments of FIG. 1G",2.2%
O=C1NC(Nc2ccccc2)=N/C1=C\c1ccc2c(c1)OCO2 [leucettine],actual Ki67% values,human beta cells [1],2.8%
same,synergy of DYRK1A inhibitor with GLP1 on beta cell proliferation,human beta cells [1],synergistic
"GLP1(7-36)amide (HAEGTFTSDVSSYLEGQAAKEFIAWLVKGR-NH2; UniProt P01275 98-127, looked up)",proliferation (BrdU) in beta cells,beta (INS+) cells; [4],further increased proliferation; also recorded: accentuates
same,proliferation (BrdU) in alpha cells,alpha (GCG+) cells; [4],no additional effect
same,proliferation (BrdU) in delta cells,delta (SST+) cells; [4],no additional effect
same,proliferation (BrdU) in ductal cells,ductal (CK19+) cells; [4],further increased proliferation; also recorded: accentuates
same,change to cell cycle activators or inhibitors (qPCR),cell cycle molecules,no incremental change to cell cycle activators or inhibitors
same,"effect on human beta cell proliferation, agent administered alone",human beta cells [1],negligible effects
same,"proliferation, agent alone at low dose",human beta cells [1],little or no proliferation
same,synergy of GLP1R agonist with harmine on beta cell proliferation,human beta cells [1],synergy was also apparent
"exendin-4: GLP1R agonist (11940, Cayman)",synergy of GLP1R agonist with harmine on beta cell proliferation,human beta cells [1],synergy was also apparent
lixisenatide: GLP1R agonist,synergy of GLP1R agonist with harmine on beta cell proliferation,human beta cells [1],synergy was also apparent
